# Test: Quantification of stearic acid and palmitic acid in water after homogenization, centrifugation and filtration
# Type: physicochemical
# Description: For the quantification of stearic acid and palmitic acid in water from magnesium stearate alone 1 mg magnesium stearate was added in water under high shear homogenization and mixed for 15 min under continuous homogenization. After homogenization, the prepared dispersion was centrifuged to remove bigger particle size. The supernatant solution was then filtered through 0.2-micron nylon syringe filter and the filtrate was analyzed for content of stearic acid and palmitic acid. […] After homogenization, the prepared dispersion was centrifuged to remove bigger particle size. The supernatant solution was then filtered through 0.45 μm (B1) or 0.2 μm (B2) nylon syringe filter and the filtrate were analyzed for content of stearic acid and palmitic acid.
substance,measurement,setting,value
Magnesium stearate,Palmitic acid,"powder, unfiltered",49.35 % w/w
same,Stearic acid,"powder, unfiltered",50.64 % w/w
same,Palmitic acid,"water, 0.2 μm filtered",2.91 % w/w
same,Stearic acid,"water, 0.2 μm filtered",0.00 % w/w
same,Total fatty acid in media,"water, 0.2 μm filtered",2.91%

# Source: patent US12558320B2, “Method of preparing a solid dosage form and a lubricant” (Evonik Operations GmbH, priority 2019, dated 2026)
